For one assay, the system named is raphe clone 1 cells. Description: raphe clone 1 cells at non-permissive temperature (39° C.), survival and differentiation. The format is cell-based, rat. Conditions: plus fibroblast growth factor, up to 72 h.
The next assay concerns low-affinity carrier. The assay can be described thus: serotonin uptake by clone 921203-6 cells after shift to 39° C. The format is cell-based, rat. The note with it: clone 921203-6, 39° C. Here is the method:
Mesencephalic and medullary raphe neural cells from the E12-E13 rat embryo (E1=day of conception) were immortalised using a temperature-sensitive oncogene as described earlier (Stringer et al., 1994). Under permissive conditions, ie in the presence of 5 ng/ml of fibroblast growth factor (FGF)(Sigma, product no. F3391) and at 33° C., the immortalised raphe precursor cells replicate. […] No calcium channels were demonstrable using patch clamp analysis.

Procedure for raphe clone 1 cells: The above referred to homogeneous population of raphe clone 1 cells can be caused to enter apoptosis using any of the following four methods.
1. Temperature was raised to non-permissive value (39° C.) for up to 72 h, in the presence or absence of fibroblast growth factor or epidermal growth factor. Neural cells developed the ability to take up 5-hydroxytryptophan (5HTP, the precursor of 5HT), 5HT itself, and to decarboxylate 5-hydroxytryptophan to 5HT. […] The 5HT derived from 5HTP was released, although the mechanism of such release is not known.
2. Temperature was raised to non-permissive value (39° C.) for up to 72 h, in the presence of cyclic AMP plus fibroblast growth factor.
3. Temperature was raised to non-permissive value (39° C.) for up to 96 h, in the presence of retinoic acid (10 μM) plus fibroblast growth factor.

For the compound `Nc1ncnc2c1ncn2[C@@H]1O[C@@H]2COP(=O)(O)O[C@H]2[C@H]1O` [cyclic AMP], the “extent of fibre development” value with raphe clone 1 cells is on record as “increase”.
Consider `NCCc1c[nH]c2ccc(O)cc12` [serotonin, 5-hydroxytryptamine], for which, in the assay on low-affinity carrier, the Km – broadly, the substrate concentration at which the rate is half of its maximum – came to 56 µM.

Values taken from patent US6602708B1, “Neural cultures” (CellFactors plc, priority 1994, dated 2003).
